According to US8618086B2, “Compositions and methods for treating hair loss using C16-C20 aromatic tetrahydro prostaglandins” (Duke University, priority 2000, dated 2013):

What was measured:
[1] = tested on: C3H mice (conversion from telogen to anagen, skin color grade); assay: Telogen Conversion Assay; assay type: in vivo; details: topical; for Average Grades, 23 Days: visual skin color grade 0 (whitish) to 4 (dark blue, full anagen), average of 7 mice after 23 days
Experimental: PGF's are tested for their potential to grow hair using the Telogen Conversion Assay. The Telogen Conversion Assay measures the potential of a PGF to convert mice in the resting stage of the hair growth cycle (“telogen”), to the growth stage of the hair growth cycle (“anagen”).
Without intending to be limited by theory, there are three principal phases of the hair growth cycle: anagen, catagen, and telogen. It is believed that there is a longer telogen period in C3H mice (Harlan Sprague Dawley, Inc., Indianapolis, Ind.) from approximately 40 days of age until about 75 days of age, when hair growth is synchronized. It is believed that after 75 days of age, hair growth is no longer synchronized. Wherein about 40 day-old mice with dark fur (brown or black) are used in hair growth experiments, melanogenesis occurs along with hair (fur) growth wherein the topical application of hair growth inducers are evaluated. The Telogen Conversion Assay herein is used to screen PGF's for potential hair growth by measuring melanogenesis.
Three groups of 44 day-old C3H mice are used: a vehicle control group, a positive control group, and a test PGF group, wherein the test PGF group is administered a PGF used in the method of this invention. The length of the assay is 24 days with 15 treatment days (wherein the treatment days occur Mondays through Fridays). Day 1 is the first day of treatment. Typical dosage concentrations are set forth in Table 1, however the skilled artisan will readily understand that such concentrations may be modified.
The mice are treated topically Monday through Friday on their lower back (base of tail to the lower rib). A pipettor and tip are used to deliver 400 μL to each mouse's back. The 400 μL application is applied slowly while moving hair on the mouse to allow the application to reach the skin.
While each treatment is being applied to the mouse topically, a visual grade of from 0 to 4 will be given to the skin color in the application area of each animal. As a mouse converts from telogen to anagen, its skin color will become more bluish-black.

[2] = molecular target: T1, hFP receptor (hFP membrane from transfected COS-7 cells) (Homo sapiens, UniProt P43088); assay: Radioligand Binding Assay; details: competition with (3H) PGF2 on hFP membrane; read-out: IC50 the PGF
T1 construct: expressed in transfected cells; host or cells: COS-7 cells (transient transfection, LipofectAMINE); membrane preparation
T1 sequence (P43088 whole entry): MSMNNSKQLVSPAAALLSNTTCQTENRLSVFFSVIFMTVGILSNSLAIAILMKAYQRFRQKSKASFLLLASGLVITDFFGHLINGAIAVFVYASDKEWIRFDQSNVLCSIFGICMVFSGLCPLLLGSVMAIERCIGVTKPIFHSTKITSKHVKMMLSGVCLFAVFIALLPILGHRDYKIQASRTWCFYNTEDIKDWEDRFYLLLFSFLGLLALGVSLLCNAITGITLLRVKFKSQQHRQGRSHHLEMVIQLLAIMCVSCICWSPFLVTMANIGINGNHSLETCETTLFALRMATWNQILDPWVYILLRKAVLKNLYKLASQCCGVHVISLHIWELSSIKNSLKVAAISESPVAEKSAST
Experimental: IC50 of a PGF can be determined relative to PGF2α using the Radioligand Binding Assay. As a control, the IC50 for PGF2α itself should be no lower than 1.0 nM and no higher than 5.0 nM.
In this assay, COS-7 cells are transiently transfected with the hFP recombinant plasmid using LipofectAMINE Reagent. Forty-eight hours later, the transfected cells are washed with Hank's Balanced Salt Solution (HBSS, without CaCl2, MgCl2, MgSO4, or phenol red). The cells are detached with versene, and HBSS is added. The mixture is centrifuged at 200 g for 10 minutes, at 4° C. to pellet the cells. The pellet is resuspended in Phosphate-Buffered Saline-EDTA buffer (PBS; 1 mM EDTA; pH 7.4; 4° C.). The cells are disrupted by nitrogen cavitation (Parr model 4639), at 800 psi, for 15 minutes at 4° C. The mixture is centrifuged at 1000 g for 10 minutes at 4° C. The supernatant is centrifuged at 100,000 g for 60 minutes at 4° C. The pellet is resuspended to 1 mg protein/mL TME buffer (50 mM Tris; 10 mM MgCl2; 1 mM EDTA; pH 6.0; 4° C.) based on protein levels measured using the Pierce BCA Protein Assay kit. The homogenate is mixed for 10 seconds using a Kinematica POLYTRON® (available from KINEMATICA AG, Luzernerstrasse 147A CH-6014 Littau, Switzerland). The membrane preparations are then stored at −80° C., until thawed for assay use.
The receptor competition binding assays are developed in a 96 well format. Each well contains […] of hFP membrane, 5 nM (3H) PGF2, and the various competing compounds in a total volume of […]. The plates are incubated at 23° C. for 1 hour. The incubation is terminated by rapid filtration using the Packard Filtermate 196 harvester through Packard UNIFILTER® GF/B filters (available from Packard Instrument Co., Inc. of Downers Grove Ill.) pre-wetted with TME buffer. The filter is washed four times with TME buffer. […] The plates are read on a Packard TOPCOUNT® Microplate Scintillation Counter (also available from Packard Instrument Co., Inc.)

Row | Compound | hair growth (result in words) [1] | Average Grades, 23 Days [1] | Average Grades, 25 Days ([1]; visual skin color grade 0 to 4, average of 7 mice after 25 days) | Average Grades, 26 Days ([1]; visual skin color grade 0 to 4, average of 7 mice after 26 days) | IC50 [2]
1 | CC(C)OC(=O)CCCCCC[C@@H]1[C@@H](CCC(O)CSc2ccccc2)[C@H](O)C[C@@H]1O (stereo partly drawn) [Example 1] | grew hair | 0.4 | 0.1 | 0.7 | 
2 | COC(=O)CCCCCC[C@@H]1[C@@H](CCC(O)CSc2ccccc2Br)[C@H](O)C[C@@H]1O (stereo partly drawn) [Example 2] | grew hair | 0.1 |  |  | 
3 | O=C(O)CCCCCC[C@@H]1[C@@H](CCC(O)CSc2cccc(F)c2)[C@H](O)C[C@@H]1O (stereo partly drawn) [Example 3-1] |  |  |  |  | 7 nM
4 | O=C(O)CCCCCC[C@@H]1[C@@H](CCC(O)CSc2ccccc2F)[C@H](O)C[C@@H]1O (stereo partly drawn) [Example 3-2] |  |  |  |  | 10 nM
5 | CC(O)(CC[C@@H]1[C@@H](CCCCCCC(=O)O)[C@@H](O)C[C@H]1O)CSc1ccccc1 (stereo partly drawn) [Example 3-3] |  |  |  |  | 24 nM
